These results are taken from US20260297092A1, “PYRAZOLOPYRIMIDINE DERIVATIVES AS INHIBITORS OF NLRP3” (Takeda Pharmaceutical Company Limited, priority 2023, published 2026).

The subject of this assay is NLRP3 inflammasome (IL-1β production in THP-1 cells). The assay can be described thus: IL-1β TR-FRET Assay (percentage of inhibition at 300 nM, 6 μM or 10 μM). Format: cell-based, human. Particulars: Homo sapiens, LPS priming, ATP activation; for inhibition at 6 µM: THP-1, 6 μM, read-out: IL-1β inhibitory rate at 6 μM (%); for inhibition at 0.3 µM: THP-1, 300 nM, read-out: IL-1β inhibitory rate at 300 nM (%); for inhibition at 10 µM: THP-1, 10 μM, read-out: IL-1β inhibitory rate at 10 μM (%). The procedure:
The biological activity of the compound of Formula 1 with respect to NLRP3 was determined using the following in vitro method.
IL-1β TR-FRET Assay (reported as percentage of inhibition at 300 nM, 6 μM or 10 μM)
Monocytic THP-1 cells (ATCC: TIB-202) were maintained in accordance with the provider's instructions in RPMI media (Life Technologies, Cat #A10491-01); RPMI was supplemented with 10% heat inactivated fetal bovine serum (Corning, Cat #35-010-CV). The cells were differentiated into macrophages by the addition of 25 ng/mL IFN-γ (PeproTech, Cat #AF-300-02-100UG) for 24 hours at 37° C./5% CO2. Media was exchanged with fresh media with no FBS, and the cells were treated with 50 ng/mL LPS (priming step) (LPS-EK: Invivogen, Cat #tlrl-peklps). The cells were plated at 20,000 cells per well in 384-well flat-bottom cell culture plates (FALCON, Cat #353962) and were incubated for 24 hours at 37° C./5% CO2. Compounds were serially diluted (half log or 5-fold dilutions) with DMSO and were finally diluted with Media with no FBS. The compounds were added to the cells in 384-well plates (added in 1:3) and then the plates were incubated for 30 minutes at 37° C./5% CO2. The NLRP3 inflammasome was activated with the addition of 20 mM ATP (Sigma Cat #A3377-25G) and the cells were incubated for 2 hours at 37° C./5% CO2. At the end of the incubation period, 30 μL supernatant was transferred to another 384-well plate and mixed on a plate shaker for 1 minute. The supernatant was mixed with HTRF Antibody (Human IL1 beta kit, Cisbio, 62HIL1BPEH) in assay plates (Greiner Bio-One, Cat #784075) and the assay plates were incubated in shading box at room temperature for 16-24 hours. HTRF signal was measured by EnVision (Perkinelmer) in accordance with the manufacturer's instructions.
The percentage of inhibition at 300 nM, 6 μM or 10 μM in the IL-1βTR-FRET assay was calculated by the following formula: Percentage of inhibition=[1−(HTRF signaltest−HTRF signalLow)/(HTRF signalHigh−HTRF signalLow)]*100, where HTRF signaltest is the HTRF signal in the well to which test compound is added, HTRF signalLow is the HTRF signal in the well to which 3 μM MCC-950 is added, and the HTRF signalHigh is the HTRF signal in the well to which DMSO is added.
In general terms: In TR-FRET formats the signal depends on donor and acceptor labels being close together.

Take `COCc1nc2nn(-c3c(C(F)F)cc(C4CC4)c(C4CC4)c3C)cc2c(=O)[nH]1` [Example 320, 2-[3,4-dicyclopropyl-6-(difluoromethyl)-2-methylphenyl)-6-(methoxymethyl)-2,5-dihydro-4H-pyrazolo[3,4-d]pyrimidin-4-one]: the inhibition at 6 µM came out at 94%.

Regarding `CCCc1ccc(-n2nc3nc(OCC)[nH]c(=O)c3c2C)c(O)c1` [Example 80, 6-ethoxy-2-(2-hydroxy-4-propylphenyl)-3-methyl-2,5-dihydro-4H-pyrazolo[3,4-d]pyrimidin-4-one], the inhibition at 0.3 µM came to 99%.

As for `Cc1ccc(-n2cc3c(=O)[nH]c(O[C@H]4C[C@H](C#N)C4)nc3n2)c(C)c1` [Example 219, 3-{[2-(2,4-dimethylphenyl)-4-oxo-4,5-dihydro-2H-pyrazolo[3,4-d]pyrimidin-6-yl]oxy}cyclobutane-1-carbonitrile], the inhibition at 0.3 µM stood at 96%.

With `Cc1cc(C2CC2)cc(C)c1-n1cc2c(=O)[nH]c(C3CCCO3)nc2n1` (racemic) [Example 223, 2-(4-cyclopropyl-2,6-dimethylphenyl)-6-(oxolan-2-yl)-2,5-dihydro-4H-pyrazolo[3,4-d]pyrimidin-4-one], the inhibition at 0.3 µM worked out at 100%.

As to `O=c1[nH]c(COC(F)F)nc2nn(-c3ccc([N+](=O)[O-])cc3C(F)F)cc12` [Example 256, 6-[(difluoromethoxy)methyl]-2-[2-(difluoromethyl)-4-nitrophenyl]-2,5-dihydro-4H-pyrazolo [3,4-d]pyrimidin-4-one], the inhibition at 6 µM worked out at 89%.

Take `CCc1nc2nn(-c3ccc(C4CC4)c(C(F)F)c3F)cc2c(=O)[nH]1` [Example 281, 2-[4-cyclopropyl-3-(difluoromethyl)-2-fluorophenyl]-6-ethyl-2,5-dihydro-4H-pyrazolo[3,4-d]pyrimidin-4-one]: the inhibition at 6 µM was 98%.

As for `Cc1cc(C2CC2)cc(C(F)F)c1-n1cc2c(=O)[nH]c([C@@H]3COCCO3)nc2n1` [Example 326, 2-[4-cyclopropyl-2-(difluoromethyl)-6-methylphenyl]-6-[(2S)-1,4-dioxan-2-yl]-2,5-dihydro-4H-pyrazolo[3,4-d]pyrimidin-4-one or 2-[4-cyclopropyl-2-(difluoromethyl)-6-methylphenyl]-6-[(2R)-1,4-dioxan-2-yl]-2,5-dihydro-4H-pyrazolo[3,4-d]pyrimidin-4-one], the inhibition at 10 µM came out at 111%.

On to `CCOc1nc2nn(-c3c(F)cc(OC)cc3C(F)F)cc2c(=O)[nH]1` [Example 149, 2-[2-(difluoromethyl)-6-fluoro-4-methoxyphenyl]-6-ethoxy-2,5-dihydro-4H-pyrazolo[3,4-d]pyrimidin-4-one], for which the inhibition at 0.3 µM came out at 99%.

For the molecule `CCOc1nc2nn(-c3c(F)cc(C4CC4)cc3C(O)C(F)F)cc2c(=O)[nH]1` (racemic) [Example 177, 2-[4-cyclopropyl-2-(2,2-difluoro-1-hydroxyethyl)-6-fluorophenyl]-6-ethoxy-2,5-dihydro-4H-pyrazolo[3,4-d]pyrimidin-4-one], the inhibition at 0.3 µM came out at 108%.

Take `Cc1nc2nn(-c3c(C)cc(C4CC4)cc3C)cc2c(=O)[nH]1` [Example 180, 2-(4-cyclopropyl-2,6-dimethylphenyl)-6-methyl-2,5-dihydro-4H-pyrazolo[3,4-d]pyrimidin-4-one]: the inhibition at 0.3 µM worked out at 99%.

`Cc1ccc(-n2cc3c(=O)[nH]c(OCC(F)F)nc3n2)c(C)c1` [Example 220, 6-(2,2-difluoroethoxy)-2-(2,4-dimethylphenyl)-2,5-dihydro-4H-pyrazolo [3,4-d]pyrimidin-4-one]: the inhibition at 0.3 µM turned out to be 71%.

`Cc1cc(Br)cc(C)c1-n1cc2c(=O)[nH]c(-c3ccncn3)nc2n1` [Example 185, 2-(4-bromo-2,6-dimethylphenyl)-6-(pyrimidin-4-yl)-2,5-dihydro-4H-pyrazolo[3,4-d]pyrimidin-4-one]: the inhibition at 0.3 µM was 114%.

Take `Cc1cc(C2CC2)cc(C(F)F)c1-n1cc2c(=O)[nH]c([C@H]3COCCO3)nc2n1` [Example 325, 2-[4-cyclopropyl-2-(difluoromethyl)-6-methylphenyl]-6-[(2R)-1,4-dioxan-2-yl]-2,5-dihydro-4H-pyrazolo[3,4-d]pyrimidin-4-one or 2-[4-cyclopropyl-2-(difluoromethyl)-6-methylphenyl]-6-[(2S)-1,4-dioxan-2-yl]-2,5-dihydro-4H-pyrazolo[3,4-d]pyrimidin-4-one]: the inhibition at 10 µM stood at 100%.

In the case of `COc1nc2nn(-c3c(F)cc(C4CC4)cc3CC(F)F)cc2c(=O)[nH]1` [Example 309, 2-[4-cyclopropyl-2-(2,2-difluoroethyl)-6-fluorophenyl]-6-methoxy-2,5-dihydro-4H-pyrazolo [3,4-d]pyrimidin-4-one], the inhibition at 6 µM came to 99%.

As to `Cc1cc(Br)cc(C(F)F)c1-n1cc2c(=O)[nH]c(COC(F)F)nc2n1` [Example 279, 2-[4-bromo-2-(difluoromethyl)-6-methylphenyl]-6-[(difluoromethoxy)methyl]-2,5-dihydro-4H-pyrazolo[3,4-d]pyrimidin-4-one], the inhibition at 6 µM was determined as 100%.

For `Cc1nc2nn(-c3c(C)cc(Br)cc3C)cc2c(=O)[nH]1` [Example 187, 2-(4-bromo-2,6-dimethylphenyl)-6-methyl-2,5-dihydro-4H-pyrazolo[3,4-d]pyrimidin-4-one], the inhibition at 0.3 µM came out at 97%.

`Cc1cc(C2CC2)cc(C)c1-n1cc2c(=O)[nH]c(COC3COC3)nc2n1` [Example 236, 2-(4-cyclopropyl-2,6-dimethylphenyl)-6-{[(oxetan-3-yl)oxy]methyl}-2,5-dihydro-4H-pyrazolo[3,4-d]pyrimidin-4-one]: the inhibition at 6 µM stood at 93%.

As to `Cc1cc(C2CC2)cc(C)c1-n1cc2c(=O)[nH]c(C3=CCOCC3)nc2n1` [Example 307, 2-(4-cyclopropyl-2,6-dimethylphenyl)-6-(3,6-dihydro-2H-pyran-4-yl)-2,5-dihydro-4H-pyrazolo[3,4-d]pyrimidin-4-one], the inhibition at 6 µM stood at 108%.

For the molecule `Cc1cc(C2CC2)cc(C)c1-n1cc2c(=O)[nH]c(CO)nc2n1` [Example 304, 2-(4-cyclopropyl-2,6-dimethylphenyl)-6-(hydroxymethyl)-2,5-dihydro-4H-pyrazolo[3,4-d]pyrimidin-4-one], the inhibition at 6 µM is 103%.

With `Cc1cc(C2CC2)cc(C)c1-n1cc2c(=O)[nH]c(-c3cn4c(n3)COCC4)nc2n1` [Example 264, 2-(4-cyclopropyl-2,6-dimethylphenyl)-6-(5,6-dihydro-8H-imidazo[2,1-c][1,4]oxazin-2-yl)-2,5-dihydro-4H-pyrazolo[3,4-d]pyrimidin-4-one], the inhibition at 6 µM was 100%.

As to `Cc1cc(C2CC2)cc(C)c1-n1cc2c(=O)[nH]c(CN3CCCO3)nc2n1` [Example 237, 2-(4-cyclopropyl-2,6-dimethylphenyl)-6-[(1,2-oxazolidin-2-yl)methyl]-2,5-dihydro-4H-pyrazolo[3,4-d]pyrimidin-4-one], the inhibition at 6 µM is 98%.

For the molecule `Cc1ccc(-n2cc3c(=O)[nH]c(OCCC(F)(F)F)nc3n2)c(C)c1` [Example 197, 2-(2,4-dimethylphenyl)-6-(3,3,3-trifluoropropoxy)-2,5-dihydro-4H-pyrazolo [3,4-d]pyrimidin-4-one], the inhibition at 0.3 µM worked out at 60%.

Regarding `Nc1ccc(-n2cc3c(=O)[nH]c(COC(F)F)nc3n2)c(C(F)F)c1` [Example 261, 2-[4-amino-2-(difluoromethyl)phenyl]-6-[(difluoromethoxy)methyl]-2,5-dihydro-4H-pyrazolo[3,4-d]pyrimidin-4-one], the inhibition at 6 µM worked out at 80%.

With `CCCc1nc2nn(-c3c(C)cc(C4CC4)cc3C)cc2c(=O)[nH]1` [Example 240, 2-(4-cyclopropyl-2,6-dimethylphenyl)-6-propyl-2,5-dihydro-4H-pyrazolo[3,4-d]pyrimidin-4-one], the inhibition at 6 µM was 101%.

Consider `Cc1ccc(-n2cc3c(=O)[nH]c(OCCCC(F)(F)F)nc3n2)c(C)c1` [Example 196, 2-(2,4-dimethylphenyl)-6-(4,4,4-trifluorobutoxy)-2,5-dihydro-4H-pyrazolo[3,4-d]pyrimidin-4-one], for which the inhibition at 0.3 µM came out at 55%.

For the molecule `CCOc1nc2nn(-c3c(C)cc(Br)cc3OC(F)F)cc2c(=O)[nH]1` [Example 221, 2-[4-bromo-2-(difluoromethoxy)-6-methylphenyl]-6-ethoxy-2,5-dihydro-4H-pyrazolo[3,4-d]pyrimidin-4-one], the inhibition at 0.3 µM worked out at 99%.
